Results reported in ChEMBL document CHEMBL1134448, “Design, synthesis, and proposed active site binding analysis of monocyclic 2-azetidinone inhibitors of prostate specific antigen” (J Med Chem, 2001).

Biological target: Prostate-specific antigen (KLK3) (Homo sapiens) (UniProt P07288)
Test: Inhibition of Prostate specific antigen PSA (Serine Protease)

Sequence of Prostate-specific antigen (KLK3) (Homo sapiens) (P07288 whole entry, looked up): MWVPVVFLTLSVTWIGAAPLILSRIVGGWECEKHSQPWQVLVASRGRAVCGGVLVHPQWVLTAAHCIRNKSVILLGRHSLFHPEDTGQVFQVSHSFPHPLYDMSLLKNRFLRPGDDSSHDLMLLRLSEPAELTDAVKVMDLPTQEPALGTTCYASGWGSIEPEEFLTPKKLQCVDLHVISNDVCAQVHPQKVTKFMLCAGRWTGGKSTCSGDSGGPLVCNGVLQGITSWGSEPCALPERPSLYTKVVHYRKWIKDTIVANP

Compound	IC50 [nM]
O=C(OCc1ccccc1)c1cccc(CC(=O)N2C(=O)[C@@H](Cc3ccccc3)[C@H]2C(=O)OCc2ccccc2)c1	1430
O=C(O)c1ccc(COC(=O)c2cccc(CC(=O)N3C(=O)[C@@H](Cc4ccccc4)[C@H]3C(=O)OCc3ccc(C(=O)O)cc3)c2)cc1	5840
O=C(O)c1ccc(COC(=O)[C@@H]2[C@H](Cc3ccccc3)C(=O)N2C(=O)Cc2cccc(C(=O)OCc3ccccc3)c2)cc1	8980
O=C(O)c1ccc(COC(=O)[C@@H]2[C@H](Cc3ccc(O)cc3)C(=O)N2C(=O)Cc2cccc(C(=O)OCc3ccccc3)c2)cc1	3500

Molecules with a lower IC50, results first:

IC50 [nM]	Compound
348	O=C(OCc1ccccc1)c1cccc(CC(=O)N2C(=O)[C@@H](Cc3ccc(O)cc3)[C@H]2C(=O)OCc2ccccc2)c1 (stereo in doubt; 16)
226	O=C(OCc1ccccc1)c1cccc(CC(=O)N2C(=O)[C@@H](Cc3ccc(O)cc3)[C@H]2C(=O)OCc2ccccc2)c1 (stereo in doubt; (3S,4S)-18)
